# From ChEMBL document CHEMBL3745629, “Novel Amino-pyrazole Ureas with Potent In Vitro and In Vivo Antileishmanial Activity” (J Med Chem, 2015)
# Assays:
# Type in all cases: ADME, organism-based, Mesocricetus auratus
# Settings in all cases: in vivo
# [1] = Cmax in golden hamster at 50 mg/kg, po; design: dose 50 mg/kg, route oral
# [2] = Tmax in golden hamster at 50 mg/kg, po
# [3] = AUC (0 to 24 hrs) in golden hamster at 50 mg/kg, po; design: dose 50 mg/kg, time < 24 hr, route oral
structure (smiles),measurement,setting,value
O=C(Nc1cc(-c2ccccn2)n[nH]1)N1CCN(c2ccc(F)cc2)CC1,Cmax,[1],5680 ng/mL
same,Tmax,[2],1.33 h
same,AUC(0-t) at 24 h,[3],25400 ng·h/mL
